From patent publication US9655887B2, “Pharmaceutical composition and the use thereof, and application regime of said pharmaceutical composition for on-demand contraception” (BAYER PHARMA AKTIENGESELLSCHAFT, priority 2013, dated 2017)

target: EP2 subtype of the human PGE2 receptor (hEP2 receptor) (Homo sapiens, UniProt P43116); assay: cAMP antagonism test, human prostaglandin E2 (subtype EP2) receptor signal; type: cell-based
From the text: 1. Detection of Antagonism to the Human Prostaglandin E2 (Subtype EP2) Receptor Signal
The binding of PGE2 to the EP2 subtype of the human PGE2 receptor induces the activation of membrane-located adenylate cyclases and leads to the formation of cAMP. In the presence of the phosphodiesterase inhibitor IBMX, the cAMP accumulated owing to this stimulation and released by cell lysis is used in a competitive detection method. In this test, the cAMP present in the lysate competes with a fluorescence-labelled cAMP (cAMP-d2) for binding to an Eu cryptate-labelled anti-cAMP antibody.
In the absence of cellular cAMP, a maximal signal is produced, which is attributable to the binding of this cAMP-d2 molecule to the antibody. After excitation of the […] at 337 nm, there is a fluorescence resonance energy transfer (FRET) to the Eu cryptate molecules of the anti-cAMP antibody (labelled therewith), followed by a long-lasting emission signal at 665 nm (and at […]). Both signals are measured in a suitable measurement instrument with a time delay, i.e. after decay of the background fluorescence. Any increase in the low FRET signal caused by prostaglandin E2 administration (measured as well ratio change=emission665nm/emission620nm*10000) indicates the action of antagonists.
1.2.1. Test for Antagonism (Data Per Well of a 384-Well Plate):
To a test plate with the substance solutions already added (0.05 μl; 100% DMSO, concentration range from 0.8 nM-16.5 nM) were added 4 μl of a cAMP-d2/cell suspension (625000 cells/ml). After a 20-minute preincubation at room temperature (RT), 2 μl of a 3×PGE2 solution (1.5 nM, in PBS-IBMX) were added and incubated in the presence of the agonist for a further 60 mins at RT (volume: […]). Next the reaction was stopped by addition of 2 μl of lysis buffer and incubated for a further 20 mins at RT before the actual measurement (volume: ˜8 μl).

Chain of EP2 subtype of the human PGE2 receptor (hEP2 receptor) (P43116 whole entry): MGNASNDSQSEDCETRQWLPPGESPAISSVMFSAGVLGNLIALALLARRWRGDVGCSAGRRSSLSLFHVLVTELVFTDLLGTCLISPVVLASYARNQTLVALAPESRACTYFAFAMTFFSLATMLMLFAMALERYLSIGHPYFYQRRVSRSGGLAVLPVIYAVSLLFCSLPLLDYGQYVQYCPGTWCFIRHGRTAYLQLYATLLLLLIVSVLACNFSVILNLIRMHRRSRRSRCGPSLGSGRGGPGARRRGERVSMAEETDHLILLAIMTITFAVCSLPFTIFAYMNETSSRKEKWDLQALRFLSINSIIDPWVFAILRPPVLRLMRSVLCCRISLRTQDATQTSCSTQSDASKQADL

| SMILES | IC50 [nM] |
| --- | --- |
| COCCNC(=O)c1ccc2nn(CC3CCN(C(=O)c4ccc(OC(C)(C)C)cc4)CC3)cc2c1C [Example E2, 2-{[1-(4-tert-butoxybenzoyl)piperidin-4-yl]methyl}-N-(2-methoxyethyl)-4-methyl-2H-indazole-5-carboxamide] | > 50 |
| COCCNC(=O)c1ccc2nn(CC3CCN(C(=O)c4ccc(Oc5ccc(F)cc5)cc4)CC3)cc2c1C [Example E3, 2-({1-[4-(4-fluorophenoxy)benzoyl]piperidin-4-yl}methyl)-N-(2-methoxyethyl)-4-methyl-2H-indazole-5-carboxamide] | > 50 |
| COCCNC(=O)c1ccc2nn(CC3CCN(C(=O)c4ccc(-c5ccc(F)cc5)cc4)CC3)cc2c1C [Example E5, 2-({1-[(4′-fluorobiphenyl-4-yl)carbonyl]piperidin-4-yl}methyl)-N-(2-methoxyethyl)-4-methyl-2H-indazole-5-carboxamide] | > 50 |
| COCCNC(=O)c1ccc2nn(CC3CCN(C(=O)c4ccc(OC)cc4F)CC3)cc2c1C [Example E7, 2-{[1-(2-fluoro-4-methoxybenzoyl)piperidin-4-yl]methyl}-N-(2-methoxyethyl)-4-methyl-2H-indazole-5-carboxamide] | > 50 |
| COCCNC(=O)c1ccc2nn(CC3CCN(C(=O)c4ccc(Br)cc4F)CC3)cc2c1C [Example E8, 2-{[1-(4-bromo-2-fluorobenzoyl)piperidin-4-yl]methyl}-N-(2-methoxyethyl)-4-methyl-2H-indazole-5-carboxamide] | > 50 |
| COCCNC(=O)c1ccc2nn(CC3CCN(C(=O)c4ccc(C)cc4F)CC3)cc2c1C [Example E9, 2-{[1-(2-fluoro-4-methylbenzoyl)piperidin-4-yl]methyl}-N-(2-methoxyethyl)-4-methyl-2H-indazole-5-carboxamide] | > 50 |
| COCCNC(=O)c1ccc2nn(CC3CCN(C(=O)c4ccc(C(F)(F)F)cc4F)CC3)cc2c1C [Example E10, 2-({1-[2-fluoro-4-(trifluoromethyl)benzoyl]piperidin-4-yl}methyl)-N-(2-methoxyethyl)-4-methyl-2H-indazole-5-carboxamide] | > 50 |
| COCCNC(=O)c1ccc2nn(CC3CCN(C(=O)c4ccc(S(F)(F)(F)(F)F)cc4)CC3)cc2c1C [Example E11, N-(2-methoxyethyl)-4-methyl-2-({1-[4-(pentafluoro-λ^6-sulphanyl)benzoyl]piperidin-4-yl}methyl)-2H-indazole-5-carboxamide] | > 50 |
| COCCNC(=O)c1ccc2nn(CC3CCN(C(=O)c4ccc(C)cc4)CC3)cc2c1C [Example E12, N-(2-methoxyethyl)-4-methyl-2-{[1-(4-methylbenzoyl)piperidin-4-yl]methyl}-2H-indazole-5-carboxamide] | > 50 |
| COCCNC(=O)c1ccc2nn(CC3CCN(C(=O)c4ccc(Oc5ccc(Cl)cc5)cc4)CC3)cc2c1C [Example E13, 2-({1-[4-(4-chlorophenoxy)benzoyl]piperidin-4-yl}methyl)-N-(2-methoxyethyl)-4-methyl-2H-indazole-5-carboxamide] | > 50 |
| COCCNC(=O)c1ccc2nn(CC3CCN(C(=O)c4ccc(Oc5ccc(C)cc5)cc4)CC3)cc2c1C [Example E14, N-(2-methoxyethyl)-4-methyl-2-({1-[4-(4-methylphenoxy)benzoyl]piperidin-4-yl}-methyl)-2H-indazole-5-carboxamide] | > 50 |
| COCCNC(=O)c1ccc2nn(CC3CCN(C(=O)c4ccc(Oc5ccc(C(C)(C)C)cc5)cc4)CC3)cc2c1C [Example E15, 2-({1-[4-(4-tert-butylphenoxy)benzoyl]piperidin-4-yl}methyl)-N-(2-methoxyethyl)-4-methyl-2H-indazole-5-carboxamide] | > 50 |
| COCCNC(=O)c1ccc2nn(CC3CCN(C(=O)c4ccc(Oc5ccc(OC)cc5)cc4)CC3)cc2c1C [Example E17, N-(2-methoxyethyl)-2-({1-[4-(4-methoxyphenoxy)benzoyl]piperidin-4-yl}methyl)-4-methyl-2H-indazole-5-carboxamide] | > 50 |
| COCCNC(=O)c1ccc2nn(CC3CCN(C(=O)c4ccc(Oc5ccccc5)cc4)CC3)cc2c1C [Example E18, N-(2-methoxyethyl)-4-methyl-2-{[1-(4-phenoxybenzoyl)piperidin-4-yl]methyl}-2H-indazole-5-carboxamide] | > 50 |
| COCCNC(=O)c1ccc2nn(CC3CCN(C(=O)c4ccc(C5CC5)cc4)CC3)cc2c1C [Example E19, 2-{[1-(4-cyclopropylbenzoyl)piperidin-4-yl]methyl}-N-(2-methoxyethyl)-4-methyl-2H-indazole-5-carboxamide] | > 50 |
| COCCNC(=O)c1ccc2nn(CC3CCN(C(=O)c4ccc(OC)cc4)CC3)cc2c1C [Example E20, 2-{[1-(4-methoxybenzoyl)piperidin-4-yl]methyl}-N-(2-methoxyethyl)-4-methyl-2H-indazole-5-carboxamide] | > 50 |
| COCCNC(=O)c1ccc2nn(CC3CCN(C(=O)c4ccc(F)cc4)CC3)cc2c1C [Example E21, 2-{[1-(4-fluorobenzoyl)piperidin-4-yl]methyl}-N-(2-methoxyethyl)-4-methyl-2H-indazole-5-carboxamide] | > 50 |
| COCCNC(=O)c1ccc2nn(CC3CCN(C(=O)c4ccc(C(F)(F)F)cc4)CC3)cc2c1C [Example E22, N-(2-methoxyethyl)-4-methyl-2-({1-[4-(trifluoromethyl)benzoyl]piperidin-4-yl}-methyl)-2H-indazole-5-carboxamide] | > 50 |
| COCCNC(=O)c1ccc2nn(CC3CCN(C(=O)c4ccc(S(=O)(=O)C(F)(F)F)cc4)CC3)cc2c1C [Example E24, N-(2-methoxyethyl)-4-methyl-2-[(1-{4-[(trifluoromethyl)sulphonyl]benzoyl}piperidin-4-yl)methyl]-2H-indazole-5-carboxamide] | > 50 |
| COCCNC(=O)c1ccc2nn(CC3CCN(C(=O)c4cccc(C(F)(F)F)c4)CC3)cc2c1C [Example E25] | > 50 |
| COCCNC(=O)c1ccc2nn(CC3CCN(C(=O)c4cccc(C)c4)CC3)cc2c1C [Example E26, N-(2-methoxyethyl)-4-methyl-2-{[1-(3-methylbenzoyl)piperidin-4-yl]methyl}-2H-indazole-5-carboxamide] | > 50 |
| COCCNC(=O)c1ccc2nn(CC3CCN(C(=O)c4cccc(Cl)c4)CC3)cc2c1C [Example E27, 2-{[1-(3-chlorobenzoyl)piperidin-4-yl]methyl}-N-(2-methoxyethyl)-4-methyl-2H-indazole-5-carboxamide] | > 50 |
| COCCNC(=O)c1ccc2nn(CC3CCN(C(=O)c4ccc(OC5CCCC5)cc4)CC3)cc2c1C [Example E29, 2-({1-[4-(cyclopentyloxy)benzoyl]piperidin-4-yl}methyl)-N-(2-methoxyethyl)-4-methyl-2H-indazole-5-carboxamide] | > 50 |
| COCCNC(=O)c1ccc2nn(CC3CCN(C(=O)c4ccc(C(F)F)cc4)CC3)cc2c1C [Example E30, 2-({1-[4-(difluoromethyl)benzoyl]piperidin-4-yl}methyl)-N-(2-methoxyethyl)-4-methyl-2H-indazole-5-carboxamide] | > 50 |
| COCCNC(=O)c1ccc2nn(CC3CCN(C(=O)c4ccc(C#N)cc4)CC3)cc2c1C [Example E31, 2-{[1-(4-cyanobenzoyl)piperidin-4-yl]methyl}-N-(2-methoxyethyl)-4-methyl-2H-indazole-5-carboxamide] | > 50 |
| COCCNC(=O)c1ccc2nn(CC3CCN(C(=O)c4ccc(-n5cccn5)cc4)CC3)cc2c1C [Example E36, N-(2-methoxyethyl)-4-methyl-2-({1-[4-(1H-pyrazol-1-yl)benzoyl]piperidin-4-yl}-methyl)-2H-indazole-5-carboxamide] | > 50 |
| COCCNC(=O)c1ccc2nn(CC3CCN(C(=O)c4ccc(OC(F)F)cc4F)CC3)cc2c1C [Example E38, 2-({1-[4-(difluoromethoxy)-2-fluorobenzoyl]piperidin-4-yl}methyl)-N-(2-methoxy-ethyl)-4-methyl-2H-indazole-5-carboxamide] | > 50 |
| COCCNC(=O)c1ccc2nn(CC3CCN(C(=O)c4ccc(N5CCCC5)cc4F)CC3)cc2c1C [Example E39, 2-({1-[2-fluoro-4-(pyrrolidin-1-yl)benzoyl]piperidin-4-yl}methyl)-N-(2-methoxyethyl)-4-methyl-2H-indazole-5-carboxamide] | > 50 |
| COCCNC(=O)c1ccc2nn(CC3CCN(C(=O)c4ccc(-c5ccc(F)cc5)cc4F)CC3)cc2c1C [Example E40, 2-({1-[(3,4′-difluorobiphenyl-4-yl)carbonyl]piperidin-4-yl}methyl)-N-(2-methoxyethyl)-4-methyl-2H-indazole-5-carboxamide] | > 50 |
| COCCNC(=O)c1ccc2nn(CC3CCN(C(=O)c4ccc(-c5ccc(OC)cc5)cc4F)CC3)cc2c1C [Example E41, 2-({1-[(3-fluoro-4′-methoxybiphenyl-4-yl)carbonyl]piperidin-4-yl}methyl)-N-(2-methoxyethyl)-4-methyl-2H-indazole-5-carboxamide] | > 50 |
